Reference: patent US6864259B2, “Antibacterial agents” (Warner-Lambert Company, priority 2001, dated 2005)
pIC50: −log10 of the molar value. ≈ marks a conversion by molar mass, not a printed value. Counter-ions that a name gives are not always drawn. Like-named read-outs stand apart in the source and are kept apart here.

Legend:
E. coli B90 = experiment: Test A antibacterial assay, standard microtitration (MIC); type: cell-based; settings: Escherichia coli, Gram negative, read-out: Minimum Inhibitory Concentrations, E. coli B90
Method: (§1) The compounds of the present invention were tested against an assortment of Gram-negative and Gram-positive organisms using standard microtitration techniques (Cohen, et al., Antimicrob. Agents Chemother., 1985;28:766; Heifetz, et al., Antimicrob. Agents Chemother., 1974;6:124). […]

E. coli Tol C = experiment: as above; type: cell-based; settings: Escherichia coli, read-out: Minimum Inhibitory Concentrations, E. coli Tol C
Method: as §1

E. coli MC 4100 = experiment: as above; type: cell-based; settings: Escherichia coli, MC4100; Gram negative; read-out: Minimum Inhibitory Concentrations, E. coli MC 4100
Method: as §1

S. pyogenes C203 = experiment: as above; type: cell-based; settings: Streptococcus pyogenes, Gram positive, read-out: Minimum Inhibitory Concentrations, S. pyogenes C203
Method: as §1

E. faecalis RB1 = experiment: as above; type: cell-based; settings: Enterococcus faecalis, Gram positive, read-out: Minimum Inhibitory Concentrations, E. faecalis RB1
Method: as §1

E. coli gyrase = E. coli gyrase (Escherichia coli, UniProt P0AES4+P0AES6); experiment: biochemical; settings: supercoiling of relaxed pBR322, 30 minutes at 37° C.
E. coli gyrase, sequence (P0AES4 whole entry, one chain of several): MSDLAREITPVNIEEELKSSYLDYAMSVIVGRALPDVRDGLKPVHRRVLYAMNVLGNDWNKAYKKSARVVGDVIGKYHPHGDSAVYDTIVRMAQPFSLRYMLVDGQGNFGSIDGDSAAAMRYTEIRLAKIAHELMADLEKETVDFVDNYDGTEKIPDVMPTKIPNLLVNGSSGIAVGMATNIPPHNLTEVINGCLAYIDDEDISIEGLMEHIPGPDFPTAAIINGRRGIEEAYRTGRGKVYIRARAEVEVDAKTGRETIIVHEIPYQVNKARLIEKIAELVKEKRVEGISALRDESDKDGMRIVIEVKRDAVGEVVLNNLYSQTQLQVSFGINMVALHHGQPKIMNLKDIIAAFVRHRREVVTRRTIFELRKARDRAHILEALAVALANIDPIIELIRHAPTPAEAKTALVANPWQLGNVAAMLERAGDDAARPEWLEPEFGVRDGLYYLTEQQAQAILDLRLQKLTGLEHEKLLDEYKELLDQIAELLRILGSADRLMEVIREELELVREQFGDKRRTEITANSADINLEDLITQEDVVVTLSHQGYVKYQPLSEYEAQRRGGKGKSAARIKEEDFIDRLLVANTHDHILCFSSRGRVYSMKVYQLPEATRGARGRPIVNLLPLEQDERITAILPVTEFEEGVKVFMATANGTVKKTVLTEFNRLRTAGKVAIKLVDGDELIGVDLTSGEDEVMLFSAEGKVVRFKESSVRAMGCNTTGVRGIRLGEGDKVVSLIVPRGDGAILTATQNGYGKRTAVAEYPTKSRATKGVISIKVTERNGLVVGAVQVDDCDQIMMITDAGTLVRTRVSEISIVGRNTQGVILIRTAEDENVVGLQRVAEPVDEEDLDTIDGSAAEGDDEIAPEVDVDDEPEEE

S. aureus 29213 = experiment: Test A antibacterial assay, standard microtitration (MIC); type: cell-based; settings: Staphylococcus aureus, Gram positive, read-out: Minimum Inhibitory Concentrations, S. aureus 29213
Method: as §1

N. gonorrhoeae 2709 = experiment: Test C cross resistance antibacterial assay (MIC); type: cell-based; settings: Neisseria gonorrhoeae, 2709, read-out: Minimum Inhibitory Concentrations, N. g. 2709
N. gonorrhoeae 2637 = experiment: Test C cross resistance antibacterial assay (MIC); type: cell-based, Neisseria gonorrhoeae
S. pyogenes = experiment: In vivo median protective dose in mice given lethal systemic infections; settings: lethal systemic infection
S. aureus UC-76 = experiment: Test C cross resistance antibacterial assay (MIC); type: cell-based; settings: Staphylococcus aureus
Method: (§2) The compounds of the present invention were tested against an assortment of ciprofloxacin resistant E. coli and S. aureus organisms described below using standard microtitration techniques (Cohen, et al., Antimicrob. Agents Chemother., 1985;28:766; Heifetz, et al., Antimicrob. Agents Chemother., 1974;6:124).

S. aureus 2552 = experiment: Test C cross resistance antibacterial assay (MIC); type: cell-based
Method: as §2

[1] = Neisseria gonorrhoeae, 2637, derivative of MS11, parent strain, read-out: Minimum Inhibitory Concentrations, N. g. 2637
[2] = UC76, wild type sensitive strain, read-out: Minimum Inhibitory Concentrations, S. aureus UC-76
[3] = Staphylococcus aureus, 2552, upregulated norA pump, read-out: Minimum Inhibitory Concentrations, S. aureus 2552

| SMILES | melting point | MIC (E. coli B90) | MIC (E. coli Tol C) | MIC (E. coli MC 4100) | MIC (S. pyogenes C203) | MIC (E. faecalis RB1) | pIC50 (E. coli gyrase) | MIC (S. aureus 29213) | MIC (N. gonorrhoeae 2709) | MIC (N. gonorrhoeae 2637; Neisseria gonorrhoeae, 2637, read-out: Minimum Inhibitory Concentrations, N. g. 2637) | In Vivo Median Protective Dose (PD50) in Mice (PO) (S. pyogenes) | MIC (S. aureus UC-76; UC76, read-out: Minimum Inhibitory Concentrations, S. aureus UC-76) | MIC (S. aureus 2552; Staphylococcus aureus, 2552, read-out: Minimum Inhibitory Concentrations, S. aureus 2552) | MIC (N. gonorrhoeae 2637; [1]) | MIC (S. aureus UC-76; [2]) | MIC (S. aureus 2552; [3]) |
| --- | --- | --- | --- | --- | --- | --- | --- | --- | --- | --- | --- | --- | --- | --- | --- | --- |
| Cc1c(N2CC[C@@H]([C@@H](C)N)C2)c(F)cn2c(=O)n(N)c(=O)c(C3CC3)c12.Cl | 218 to 221 °C |  |  |  |  |  |  |  |  |  |  |  |  |  |  |  |
| Cc1c(N2CCC(N)C2)c(F)cn2c(=O)n(N)c(=O)c(C3CC3)c12.Cl (stereo not shown) | 246 to 248 °C |  |  |  |  |  |  |  |  |  |  |  |  |  |  |  |
| Cc1c(N2CC(C)C(C(C)N)C2)c(F)cn2c(=O)n(N)c(=O)c(C3CC3)c12.Cl (stereo not shown) | 238 to 240 °C |  |  |  |  |  |  |  |  |  |  |  |  |  |  |  |
| Cc1c(N2CC(C(C)N)C(C)(C)C2)c(F)cn2c(=O)n(N)c(=O)c(C3CC3)c12 (stereo not shown) (as salt: hydrochloride) [Compound 5c, 2-Amino-6-[4-(1-amino-ethyl)-3,3-dimethylpyrrolidin-1-yl]-4-cyclopropropyl-7-fluoro-5-methyl-pyrido[1,2-c]pyrimidine-1,3-dione, hydrochloride] | 238 to 240 °C |  |  |  |  |  |  |  |  |  |  |  |  |  |  |  |
| Cc1c(N2C[C@H](CN)[C@H](F)C2)c(F)cn2c(=O)n(N)c(=O)c(C3CC3)c12 (racemic) [Compound 4j, 2-Amino-6-((3S,4S) and (3R,4R)-3-aminomethyl-4-fluoropyrrolidin-1-yl)-4-cyclopropyl-7-fluoro-5-methylpyrido[1,2-c]pyrimidine-1,3-dione] |  | 0.25 µg/mL (≈ 0.684 µM) | 0.13 µg/mL (≈ 0.356 µM) | 2 µg/mL (≈ 5.47 µM) | 0.03 µg/mL (≈ 0.0821 µM) | 0.5 µg/mL (≈ 1.37 µM) | 5.82 |  |  |  |  |  |  |  |  |  |
| O=C(O)c1cn(C2CC2)c2cc(N3CCNCC3)c(F)cc2c1=O [Ciprofloxacin, ciprofloxacin, reference compound] |  | < 0.01 µg/mL | < 0.01 µg/mL | < 0.02 µg/mL | 0.5 µg/mL (≈ 1.51 µM) | 0.5 µg/mL (≈ 1.51 µM) |  | 0.5 µg/mL (≈ 1.51 µM) | 0.06 µg/mL (≈ 0.181 µM) | 0.002 µg/mL (≈ 0.00604 µM) | >100 mg/kg | 0.13 µg/mL (≈ 0.392 µM) | 2 µg/mL (≈ 6.04 µM) |  |  |  |
| CN[C@@H](C)[C@@H]1CCN(c2c(F)cn3c(=O)n(N)c(=O)c(C4CC4)c3c2C)C1 [Compound 4f, 2-Amino-4-cyclopropyl-7-fluoro-5-methyl-6-[3-(1-methylaminoethyl)pyrrolidin-1-yl]pyrido[1,2-c]pyrimidine-1,3-dione] |  | 0.13 µg/mL (≈ 0.346 µM) | 0.03 µg/mL (≈ 0.0799 µM) | 2 µg/mL (≈ 5.33 µM) | 0.015 µg/mL (≈ 0.04 µM) | 0.06 µg/mL (≈ 0.16 µM) | 6.00 | 0.25 µg/mL (≈ 0.666 µM) | 0.5 µg/mL (≈ 1.33 µM) |  | 1.2 mg/kg |  |  | 0.25 µg/mL (≈ 0.666 µM) | 0.06 µg/mL (≈ 0.16 µM) | 0.5 µg/mL (≈ 1.33 µM) |
| Cc1c(N2CCCC2)c(F)cn2c(=O)n(N)c(=O)c(C3CC3)c12 [Compound 4g, 2-Amino-4-cyclopropyl-7-fluoro-5-methyl-6-pyrrolidin-1-yl-pyrido[1,2-c]pyrimidine-1,3-dione] | 202 to 204 °C | 0.25 µg/mL (≈ 0.785 µM) | < 0.06 µg/mL | 16 µg/mL (≈ 50.3 µM) | 1 µg/mL (≈ 3.14 µM) | 2 µg/mL (≈ 6.28 µM) | 5.77 | 1 µg/mL (≈ 3.14 µM) |  |  |  |  |  |  |  |  |
| Cc1c(N2CCC(C(C)O)C2)c(F)cn2c(=O)n(N)c(=O)c(C3CC3)c12 (stereo not shown) [Compound 4h] | 172 to 174 °C | 0.13 µg/mL (≈ 0.359 µM) | < 0.06 µg/mL | 16 µg/mL (≈ 44.1 µM) | 2 µg/mL (≈ 5.52 µM) | 2 µg/mL (≈ 5.52 µM) | 5.92 | 0.5 µg/mL (≈ 1.38 µM) |  |  |  |  |  |  | 0.5 µg/mL (≈ 1.38 µM) | 1 µg/mL (≈ 2.76 µM) |
| Cc1c(N2CC[C@@H](C3(N)CC3)C2)c(F)cn2c(=O)n(N)c(=O)c(C3CC3)c12 [Compound 4i, 2-Amino-6-[(R)-3-(1-aminocyclopropyl)pyrrolidin-1-yl]-4-cyclopropyl-7-fluoro-5-methylpyrido[1,2-c]pyrimidine-1,3-dione] |  | 0.03 µg/mL (≈ 0.0803 µM) | 0.015 µg/mL (≈ 0.0402 µM) | 0.5 µg/mL (≈ 1.34 µM) | 0.015 µg/mL (≈ 0.0402 µM) | 0.06 µg/mL (≈ 0.161 µM) | 6.19 | 0.06 µg/mL (≈ 0.161 µM) | 0.13 µg/mL (≈ 0.348 µM) |  | 2.1 mg/kg |  |  | 0.03 µg/mL (≈ 0.0803 µM) | 0.06 µg/mL (≈ 0.161 µM) | 0.06 µg/mL (≈ 0.161 µM) |
| Cc1c(N2CC[C@@H]([C@H](C)N)C2)c(F)cn2c(=O)n(N)c(=O)c(C3CC3)c12.Cl [Compound 5b, 2-Amino-6-[(R)-3-((S)-1-aminoethyl)pyrrolidin-1-yl]-4-cyclopropyl-7-fluoro-5-methyl-pyrido[1,2-c]pyrimidine-1,3-dione, hydrochloride] | 218 to 220 °C | 0.06 µg/mL | 0.03 µg/mL | 0.5 µg/mL | 0.008 µg/mL | 0.13 µg/mL | 6.30 | 0.25 µg/mL | 0.25 µg/mL |  |  |  |  | 0.13 µg/mL | 0.06 µg/mL | 0.25 µg/mL |
| Cc1c(N2CC(C(C)N)C(C)(C)C2)c(F)cn2c(=O)n(N)c(=O)c(C3CC3)c12 (stereo not shown) [Compound 5c, 2-Amino-6-[4-(1-amino-ethyl)-3,3-dimethylpyrrolidin-1-yl]-4-cyclopropropyl-7-fluoro-5-methyl-pyrido[1,2-c]pyrimidine-1,3-dione, hydrochloride] |  | 2 µg/mL | 0.5 µg/mL | 16 µg/mL | 0.5 µg/mL | 2 µg/mL | 6.15 | 2 µg/mL |  |  |  |  |  |  |  |  |
